Results reported in patent US9662323B2, “Compounds having muscarinic receptor antagonist and beta2 adrenergic receptor agonist activity” (CHIESI FARMACEUTICI S.p.A., priority 2015, dated 2017).
pKi: −log10 of the molar value. Like-named read-outs stand apart in the source and are kept apart here.

Key:
Human β2 adrenoceptor = target: T1, Human β2 adrenoceptor (Homo sapiens, UniProt P07550); assay: β2 Adrenoceptor Radioligand Binding Assay
T1 construct: purchased Perkin Elmer
Outline: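 Membranes were incubated 1 h at room temperature in 25 mM HEPES, 0.5% BSA, 1 mM EDTA, 0.02% ascorbic acid, pH 7.4, with 0.5% DMSO final. Bound radioligand was collected by GF/C filtration and counted by scintillation. IC50 values from competition curves were converted to Ki by Cheng–Prusoff.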

Human M3 receptor = target: T2, Human M3 receptor (Homo sapiens, UniProt P20309); assay: M3 Receptor Radioligand Binding Assay
T2 construct: purchased Perkin Elmer
Outline: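 Radioligand binding with 0.5% (v/v) final DMSO, incubated 2 h at room temperature with shaking. Membranes were collected on GF/C filters pre-treated with 0.5% polyethyleneimine, washed four times with assay buffer, and counted by scintillation.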

[1] = human β2 adrenoceptor membranes, 125-I Cyanopindolol, read-out: B2 binding affinity (Ki class)
[2] = human M3 receptor membranes, [3H]-N-methyl scopolamine, read-out: M3 binding affinity (Ki class)

T1 sequence (P07550 whole entry): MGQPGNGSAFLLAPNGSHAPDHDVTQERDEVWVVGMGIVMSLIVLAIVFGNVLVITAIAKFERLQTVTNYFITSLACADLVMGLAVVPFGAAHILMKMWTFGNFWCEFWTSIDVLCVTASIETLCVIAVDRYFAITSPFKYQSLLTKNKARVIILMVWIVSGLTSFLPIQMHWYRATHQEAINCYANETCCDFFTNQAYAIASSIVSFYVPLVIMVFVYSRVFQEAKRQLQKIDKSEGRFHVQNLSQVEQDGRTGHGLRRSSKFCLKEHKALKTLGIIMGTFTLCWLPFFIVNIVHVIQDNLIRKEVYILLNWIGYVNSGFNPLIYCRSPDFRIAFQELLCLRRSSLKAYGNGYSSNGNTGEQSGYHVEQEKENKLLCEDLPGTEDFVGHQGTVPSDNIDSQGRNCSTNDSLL
T2 sequence (P20309 whole entry): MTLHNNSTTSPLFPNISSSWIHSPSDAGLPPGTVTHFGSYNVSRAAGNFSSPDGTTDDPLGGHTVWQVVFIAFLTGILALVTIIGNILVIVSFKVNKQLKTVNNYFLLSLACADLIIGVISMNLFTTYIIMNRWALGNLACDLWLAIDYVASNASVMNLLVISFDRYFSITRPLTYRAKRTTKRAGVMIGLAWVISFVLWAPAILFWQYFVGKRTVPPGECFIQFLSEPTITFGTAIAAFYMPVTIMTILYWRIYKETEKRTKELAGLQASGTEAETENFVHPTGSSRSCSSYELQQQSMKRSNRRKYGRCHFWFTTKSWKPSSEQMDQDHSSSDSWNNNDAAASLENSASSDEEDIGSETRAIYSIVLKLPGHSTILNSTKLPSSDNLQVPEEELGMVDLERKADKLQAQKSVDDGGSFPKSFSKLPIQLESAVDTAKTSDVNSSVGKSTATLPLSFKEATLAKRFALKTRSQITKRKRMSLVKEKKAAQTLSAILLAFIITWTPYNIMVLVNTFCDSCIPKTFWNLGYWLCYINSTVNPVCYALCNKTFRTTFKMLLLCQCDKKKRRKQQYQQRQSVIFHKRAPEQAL

| SMILES | pKi (Human β2 adrenoceptor; [1]) | pKi (Human M3 receptor; [2]) | pKi (Human β2 adrenoceptor) | pKi (Human M3 receptor) |
| --- | --- | --- | --- | --- |
| O=C(CCc1ccc(OCc2ccc(CNC[C@H](O)c3ccc(O)c4[nH]c(=O)ccc34)cc2)cc1)N1CCC(C(=O)O[C@H]2CN3CCC2CC3)(c2ccccc2)CC1 [Compound 56, (R)-Quinuclidin-3-yl 1-(3-(4-((4-((((R)-2-hydroxy-2-(8-hydroxy-2-oxo-1,2-dihydroquinolin-5-yl)ethyl)amino)methyl)benzyl)oxy)phenyl)propanoyl)-4-phenylpiperidine-4-carboxylate] | > 9.00 | 8.00 to 9.00 | – | – |
| CC(=O)N(Cc1ccc(CNC[C@H](O)c2ccc(O)c3[nH]c(=O)ccc23)cc1)Cc1ccc(C(=O)N2CCC(C(=O)O[C@H]3CN4CCC3CC4)(c3ccccc3)CC2)cc1 [Compound 57, (R)-Quinuclidin-3-yl 1-(4-((N-(4-((((R)-2-hydroxy-2-(8-hydroxy-2-oxo-1,2-dihydroquinolin-5-yl)ethyl)amino)methyl)benzyl)acetamido)methyl)benzoyl)-4-phenylpiperidine-4-carboxylate] | 8.00 to 9.00 | > 9.00 | – | – |
| CS(=O)(=O)N(Cc1ccc(CNC[C@H](O)c2ccc(O)c3[nH]c(=O)ccc23)cc1)Cc1ccc(C(=O)N2CCC(C(=O)O[C@H]3CN4CCC3CC4)(c3ccccc3)CC2)cc1 [Compound 58, (R)-Quinuclidin-3-yl 1-(4-((N-(4-((((R)-2-hydroxy-2-(8-hydroxy-2-oxo-1,2-dihydroquinolin-5-yl)ethyl)amino)methyl)benzyl)methylsulfonamido)-methyl)benzoyl)-4-phenylpiperidine-4-carboxylate] | 8.00 to 9.00 | 8.00 to 9.00 | – | – |
| O=C(c1ccc(CN(Cc2ccc(CNC[C@H](O)c3ccc(O)c4[nH]c(=O)ccc34)cc2)C(=O)c2ccccc2)cc1)N1CCC(C(=O)O[C@H]2CN3CCC2CC3)(c2ccccc2)CC1 [Compound 59, (R)-Quinuclidin-3-yl 1-(4-((N-(4-((((R)-2-hydroxy-2-(8-hydroxy-2-oxo-1,2-dihydroquinolin-5-yl)ethyl)amino)methyl)benzyl)benzamido)methyl)benzoyl)-4-phenylpiperidine-4-carboxylate] | – | – | < 8.00 | > 9.00 |
| O=C(c1ccc(CN(Cc2ccc(CNC[C@H](O)c3ccc(O)c4[nH]c(=O)ccc34)cc2)C(=O)C2CC2)cc1)N1CCC(C(=O)O[C@H]2CN3CCC2CC3)(c2ccccc2)CC1 [Compound 60, (R)-Quinuclidin-3-yl 1-(4-((N-(4-((((R)-2-hydroxy-2-(8-hydroxy-2-oxo-1,2-dihydroquinolin-5-yl)ethyl)amino)methyl)benzyl)cyclopropanecarboxamido)-methyl)benzoyl)-4-phenylpiperidine-4-carboxylate] | 8.00 to 9.00 | > 9.00 | – | – |
| O=C(c1ccc(CN(Cc2ccc(CNC[C@H](O)c3ccc(O)c4[nH]c(=O)ccc34)cc2)S(=O)(=O)c2ccccc2)cc1)N1CCC(C(=O)O[C@H]2CN3CCC2CC3)(c2ccccc2)CC1 [Compound 61, (R)-Quinuclidin-3-yl 1-(4-((N-(4-((((R)-2-hydroxy-2-(8-hydroxy-2-oxo-1,2-dihydroquinolin-5-yl)ethyl)amino)methyl)benzyl)phenylsulfonamido)-methyl)benzoyl)-4-phenylpiperidine-4-carboxylate] | – | – | < 8.00 | > 9.00 |
| COC(=O)N(Cc1ccc(CNC[C@H](O)c2ccc(O)c3[nH]c(=O)ccc23)cc1)Cc1ccc(C(=O)N2CCC(C(=O)O[C@H]3CN4CCC3CC4)(c3ccccc3)CC2)cc1 [Compound 62, (R)-Quinuclidin-3-yl 1-(4-(((4-((((R)-2-hydroxy-2-(8-hydroxy-2-oxo-1,2-dihydroquinolin-5-yl)ethyl)amino)methyl)benzyl)(methoxycarbonyl)amino)-methyl)benzoyl)-4-phenylpiperidine-4-carboxylate] | 8.00 to 9.00 | > 9.00 | – | – |
| CNC(=O)N(Cc1ccc(CNC[C@H](O)c2ccc(O)c3[nH]c(=O)ccc23)cc1)Cc1ccc(C(=O)N2CCC(C(=O)O[C@H]3CN4CCC3CC4)(c3ccccc3)CC2)cc1 [Compound 63, (R)-Quinuclidin-3-yl 1-(4-((1-(4-((((R)-2-hydroxy-2-(8-hydroxy-2-oxo-1,2-dihydroquinolin-5-yl)ethyl)amino)methyl)benzyl)-3-methylureido)methyl)benzoyl)-4-phenylpiperidine-4-carboxylate] | 8.00 to 9.00 | > 9.00 | – | – |
| O=C(c1ccc(COCc2ccc(CNC[C@H](O)c3ccc(O)c4[nH]c(=O)ccc34)cc2)cc1)N1CCC(C(=O)O[C@H]2CN3CCC2CC3)(c2ccccc2)CC1 [Compound 64, (R)-Quinuclidin-3-yl 1-(4-(((4-((((R)-2-hydroxy-2-(8-hydroxy-2-oxo-1,2-dihydroquinolin-5-yl)ethyl)amino)methyl)benzyl)oxy)methyl)benzoyl)-4-phenylpiperidine-4-carboxylate] | 8.00 to 9.00 | > 9.00 | – | – |
